# Measurements: patent US7429616B2, “Synthesis and complete stereochemical assignment of psymberin/irciniastatin for use as antitumor compounds” (Board of Regents, University of Texas System, priority 2005, dated 2008)
# How the values were obtained:
# Type in all cases: cell-based, human
# Conditions in all cases: average of three experiments, concentration range 0.2 nM to 20 μM; for GI50 / LC50: Homo sapiens; for GI50: read-out: GI50 (concentration that inhibits 50% growth); for LC50: read-out: LC50 (concentration that kills 50% of the cells)
# SK-MEL-5 = test: Cytotoxicity, CellTiter-Glo Luminescent Cell Viability Assay, SK-MEL-5
# Procedure: (§1) The cytotoxicities of compounds 28-a, 28-b, and 29-a were evaluated against the human cancer cell lines HeLa, SK-MEL-5, and SK-MEL-28. The cytotoxicity evaluations were performed, over a concentration range of 0.2 nM to 20 μM, using the CellTiter-Glo™ Luminescent Cell Viability Assay, a product of Promega Corporation (Madison, Wis. USA), according to the protocol detailed in Promega's Technical Bulletin No. 288. Each value is the average value obtained from three experiments. GI50 is the concentration that inhibits 50% growth; TGI is the concentration that inhibits 100% growth; and LC50 is the concentration that kills 50% of the cells.
# HeLa = test: Cytotoxicity, CellTiter-Glo Luminescent Cell Viability Assay, HeLa
# Procedure: as §1
# SK-MEL-28 = test: Cytotoxicity, CellTiter-Glo Luminescent Cell Viability Assay, SK-MEL-28
# Procedure: as §1
SMILES,GI50 (SK-MEL-5),LC50 (SK-MEL-5),TGI (concentration that inhibits 100% growth) (SK-MEL-5),GI50 (HeLa),LC50 (HeLa),TGI (concentration that inhibits 100% growth) (HeLa),GI50 (SK-MEL-28),LC50 (SK-MEL-28),TGI (concentration that inhibits 100% growth) (SK-MEL-28)
"C=C(C)CC(OC)[C@H](O)C(=O)N[C@@H](OC)[C@@H]1C[C@@H](O)C(C)(C)[C@@H](C[C@H](O)C(C)C2Cc3c(C)c(O)cc(O)c3C(=O)O2)O1 (stereo partly drawn) [Compound 28-a, psymberin]",0.3 nM,1.3 nM,0.7 nM,0.23 nM,1.6 nM,0.90 nM,0.23 nM,1.2 nM,0.7 nM
C=C(C)C[C@H](OC)[C@H](O)C(=O)N[C@H](OC)[C@@H]1C[C@@H](O)C(C)(C)C(CC(O)[C@@H](C)C2Cc3c(C)c(O)cc(O)c3C(=O)O2)O1 (stereo partly drawn) [Compound 28-b],300 nM,1100 nM,700 nM,80 nM,900 nM,200 nM,110 nM,900 nM,400 nM
C=C(C)C[C@@H](OC)[C@H](O)C(=O)N[C@@H](OC)[C@@H]1C[C@@H](O)C(C)(C)C(CC(O)[C@@H](C)C2Cc3c(C)c(O)cc(O)c3C(=O)O2)O1 (stereo partly drawn) [Compound 29-a],300 nM,1700 nM,800 nM,60 nM,900 nM,200 nM,200 nM,1100 nM,550 nM
